{"source": "patent US20160143906A1", "about": "“EFFICACIOUS TREATMENT OF NSCLC AND PREDICTIVE CLINICAL MARKER OF THE RESPONSIVENESS OF A TUMOUR TO A TREATMENT” (Boehringer Ingelheim International GmbH, priority 2013, published 2016)", "key": {"[1]": {"test_system": "tumors with activating EGFR mutations or the Alk translocation", "details": "monotherapy; non-squamous patients with activating EGFR mutations or Alk translocation; cited from earlier work"}, "[2]": {"test_system": "NSCLC after fast progression on first-line platinum doublet chemotherapy", "details": "TITAN; fast progressing patients who failed during 1st line platinum containing therapy; cited from earlier work"}, "HT-29": {"test_system": "HT-29", "assay": "in vivo anti-tumor efficacy, xenograft model HT-29 (colorectal)"}, "GS-9L syngeneic rat": {"test_system": "GS-9L syngeneic rat", "assay": "in vivo anti-tumor efficacy, syngeneic rat tumor model GS-9L (glioblastoma)", "details": "50 mg/kg/d"}, "FaDu": {"test_system": "FaDu", "assay": "in vivo anti-tumor efficacy, xenograft model FaDu (head and neck)", "details": "100 mg/kg/d"}, "NCI-H460": {"test_system": "NCI-H460", "assay": "in vivo anti-tumor efficacy, xenograft model NCI-H460 (lung, non-small-cell)", "details": "25 mg/kg/d"}, "Calu-6": {"test_system": "Calu-6", "assay": "in vivo anti-tumor efficacy, xenograft model Calu-6 (lung, non-small-cell)", "details": "50 mg/kg/d"}, "SKOV3": {"test_system": "SKOV3", "assay": "in vivo anti-tumor efficacy, xenograft model SKOV3 (ovarian)", "details": "50 mg/kg/d"}, "PAC-120": {"test_system": "PAC-120", "assay": "in vivo anti-tumor efficacy, xenograft model PAC-120 (prostate, hormone-dependent)", "details": "100 mg/kg/d"}, "Caki-1": {"test_system": "Caki-1", "assay": "in vivo anti-tumor efficacy, xenograft model Caki-1 (renal)", "details": "100 mg/kg/d"}, "Rip-Tag": {"test_system": "Rip-Tag", "assay": "in vivo anti-tumor efficacy, Rip-Tag model (pancreas, murine transgenic)"}, "[3]": {"test_system": "locally advanced/metastatic NSCLC", "assay": "Phase 3 clinical study LUME LUNG 1 (nintedanib+docetaxel vs placebo+docetaxel)", "format": "in vivo, human", "from_the_text": "LUME LUNG 1 is a placebo-controlled phase 3 trial investigating nintedanib+docetaxel in patients with locally advanced/metastatic NSCLC progressing after one prior combination regimen.\n(§1) In the case of a significant interaction between treatment and a continuous variable, not only the categorisation delivered by the recursive partitioning was investigated but hazard ratios HR (treatment effect) were also globally estimated at different values of the interacting covariate.\n(§2) Kaplan-Meier plots and Forrest Plots were further used for the graphical presentation of the results."}, "advanced NSCLC tumours": {"test_system": "advanced NSCLC tumours", "assay": "Phase 3 clinical study LUME LUNG 2 (nintedanib+pemetrexed vs placebo+pemetrexed)", "format": "in vivo, human", "from_the_text": "Continuation until Progressive Disease (PD) or unacceptable toxicity with nintedanib, placebo, pemetrexed, or a combination thereof, was permitted. […] Primary endpoint was centrally assessed PFS. Secondary endpoints included OS, investigator-assessed PFS, Response Rate (RR), safety, and Quality of Life (QoL). Stepwise selection, using Cox proportional hazards modeling and a recursive partitioning tree, identified baseline variables prognostic for PFS in Arm B (placebo) of LUME LUNG 2. […] These methods were applied to the LUME LUNG 2 Data Monitoring Committee (DMC) dataset, to develop a hypothesis that was tested and validated by three steps: (i) internal confirmation using centrally assessed PFS and internal validation using OS data of the clinical trial LL2; (ii) external validation using the data from the primary analysis of the independent clinical trial LL1 (centrally assessed PFS and internal validation using OS data); and (iii) external validation using the final OS data of the clinical trial LL1.\nas §1, §2"}, "NSCLC": {"test_system": "NSCLC", "assay": "clinical trial evidence as summarised (progression within 9 months or less after initiation of prior treatment)", "format": "in vivo, human"}, "[4]": {"details": "LL1 squamous cell tumour histology"}, "[5]": {"details": "LL1 squamous cell, large tumour burden"}}, "note": "Entries after “also recorded” stand apart in the source; their conditions may differ. Where two headings read alike, the source gives them in different places.", "data": [{"smiles": "C#Cc1cccc(Nc2ncnc3cc(OCCOC)c(OCCOC)cc23)c1", "note": "[erlotinib]", "values": [{"measurement": "OS improvement", "setting": "[1]", "value": "no OS improvements have been observed"}, {"measurement": "median PFS", "setting": "[1]", "value": "around 20 months"}, {"measurement": "efficacy in PFS and OS compared to docetaxel or pemetrexed", "setting": "[2]", "value": "did not show any superior efficacy"}]}, {"smiles": "COC(=O)c1ccc2c(c1)NC(=O)/C2=C(\\Nc1ccc(N(C)C(=O)CN2CCN(C)CC2)cc1)c1ccccc1", "note": "[nintedanib, 3-Z-[1-(4-(N-((4-methyl-piperazin-1-yl)-methylcarbonyl)-N-methyl-amino)-anilino)-1-phenyl-methylene]-6-methoxycarbonyl-2-indolinone]", "values": [{"measurement": "T/C (reduction of tumor size in % of the control)", "setting": "HT-29; HT-29, 100 mg/kg/d", "value": "T/C 16% @ 100 mg/kg/d"}, {"measurement": "Efficacy", "setting": "HT-29; HT-29 large tumors", "value": "tumor volume reduction"}, {"measurement": "T/C (reduction of tumor size in % of the control)", "setting": "GS-9L syngeneic rat", "value": "T/C 32% @ 50 mg/kg/d"}, {"measurement": "T/C (reduction of tumor size in % of the control)", "setting": "FaDu", "value": "T/C 11% @ 100 mg/kg/d"}, {"measurement": "T/C (reduction of tumor size in % of the control)", "setting": "NCI-H460", "value": "T/C 54% @ 25 mg/kg/d"}, {"measurement": "T/C (reduction of tumor size in % of the control)", "setting": "Calu-6", "value": "T/C 24% @ 50 mg/kg/d"}, {"measurement": "T/C (reduction of tumor size in % of the control)", "setting": "SKOV3", "value": "T/C 19% @ 50 mg/kg/d"}, {"measurement": "T/C (reduction of tumor size in % of the control)", "setting": "PAC-120", "value": "T/C 34% @ 100 mg/kg/d"}, {"measurement": "T/C (reduction of tumor size in % of the control)", "setting": "Caki-1", "value": "T/C 13% @ 100 mg/kg/d"}, {"measurement": "Efficacy", "setting": "Rip-Tag", "value": "interference with tumor"}, {"measurement": "HR (OS)", "setting": "[3]; LL1 adenocarcinoma", "value": 0.83}, {"measurement": "HR (PFS)", "setting": "[3]; LL1 adenocarcinoma", "value": 0.84}, {"measurement": "benefit in fast progressing population with cut-off of 4 or 6 months", "setting": "[3]; LL1 adenocarcinoma, t<4 mo or t<6 mo", "value": "confirmed"}, {"measurement": "HR (OS)", "setting": "[3]; LL1 adenocarcinoma, t<9 mo", "value": 0.75}, {"measurement": "HR (PFS)", "setting": "[3]; LL1 adenocarcinoma, t<9 mo", "value": 0.68}, {"measurement": "HR (OS)", "setting": "[3]; LL1 all NSCLC patients", "value": 0.94}, {"measurement": "HR (PFS)", "setting": "[3]; LL1 all NSCLC patients", "value": 0.85}, {"measurement": "HR (OS)", "setting": "[3]; [4]", "value": 1.01}, {"measurement": "HR (PFS)", "setting": "[3]; [4]", "value": 0.83}, {"measurement": "Improvement of median OS of nintedanib versus placebo", "setting": "[3]; [4]", "value": "No benefit; also recorded: None (OS)"}, {"measurement": "HR (OS)", "setting": "[3]; [5]", "value": 0.82}, {"measurement": "HR (PFS)", "setting": "[3]; [5]", "value": 0.71}, {"measurement": "Improvement of median PFS of nintedanib versus placebo", "setting": "[3]; [5]", "value": "0.9 months (PFS)"}, {"measurement": "median PFS", "setting": "[3]; LL1 whole NSCLC patient population, centrally assessed", "value": 3.5, "unit": "months"}, {"measurement": "safety", "setting": "advanced NSCLC tumours; LL2", "value": "no safety issues were identified"}, {"measurement": "median PFS", "setting": "advanced NSCLC tumours; LL2 ITT analysis, centrally reviewed PFS", "value": 4.4, "unit": "months"}, {"measurement": "Disease control", "setting": "advanced NSCLC tumours; LL2 ITT, versus placebo", "value": "significantly improved"}, {"measurement": "HR (OS)", "setting": "advanced NSCLC tumours; LL2 adenocarcinoma, t<9 mo", "value": 0.87}, {"measurement": "HR (PFS)", "setting": "advanced NSCLC tumours; LL2 adenocarcinoma, t<9 mo", "value": 0.79}, {"measurement": "HR (OS)", "setting": "advanced NSCLC tumours; LL2 all", "value": 1.01}, {"measurement": "HR (PFS)", "setting": "advanced NSCLC tumours; LL2 all", "value": 0.84}, {"measurement": "Improvement of median OS of nintedanib versus placebo", "setting": "advanced NSCLC tumours; LL2 all", "value": "No difference; also recorded: None (OS)"}, {"measurement": "median improvement of time to deterioration of cough", "setting": "advanced NSCLC tumours; LL2 fast progressing patients, nintedanib versus placebo", "value": 3.7, "unit": "months"}, {"measurement": "median OS", "setting": "advanced NSCLC tumours; LL2 t<9 mo patient population", "value": 10.6, "unit": "months"}, {"measurement": "median PFS", "setting": "advanced NSCLC tumours; LL2 t<9 mo patient population", "value": 4.1, "unit": "months"}, {"measurement": "improvement in the median of both PFS and OS compared to placebo", "setting": "NSCLC", "value": "superior or equal to one month"}, {"measurement": "improvement in the median of both PFS and OS compared to placebo", "setting": "NSCLC; adenocarcinoma NSCLC", "value": "≥ 1.3", "unit": "months"}]}]}
